Patent US12662491B2 (Redona Therapeutics, Inc., priority 2020, dated 2026)

These compounds were tested against T1, Zcchc11 enzyme (Homo sapiens, UniProt Q5TAX3) (assay: TUTase assay (Zcchc11 assay, Lin28a-dependent polyuridylation of pre-let-7)). Conditions: LIN28A 10 nM, Zcchc11 0.2 nM, 5′-fluorescein pre-let-7 miRNA 2 nM, UTP 5 uM, room temperature, 30 minutes pre-incubation; read-out: Potency Lin28a-dep Z11 IC50.
T1 construct: made in house; host or cells: HEK293 cells (Zcchc11); E. coli Rosetta II (LIN28A)
T1 sequence (Q5TAX3 212-1420): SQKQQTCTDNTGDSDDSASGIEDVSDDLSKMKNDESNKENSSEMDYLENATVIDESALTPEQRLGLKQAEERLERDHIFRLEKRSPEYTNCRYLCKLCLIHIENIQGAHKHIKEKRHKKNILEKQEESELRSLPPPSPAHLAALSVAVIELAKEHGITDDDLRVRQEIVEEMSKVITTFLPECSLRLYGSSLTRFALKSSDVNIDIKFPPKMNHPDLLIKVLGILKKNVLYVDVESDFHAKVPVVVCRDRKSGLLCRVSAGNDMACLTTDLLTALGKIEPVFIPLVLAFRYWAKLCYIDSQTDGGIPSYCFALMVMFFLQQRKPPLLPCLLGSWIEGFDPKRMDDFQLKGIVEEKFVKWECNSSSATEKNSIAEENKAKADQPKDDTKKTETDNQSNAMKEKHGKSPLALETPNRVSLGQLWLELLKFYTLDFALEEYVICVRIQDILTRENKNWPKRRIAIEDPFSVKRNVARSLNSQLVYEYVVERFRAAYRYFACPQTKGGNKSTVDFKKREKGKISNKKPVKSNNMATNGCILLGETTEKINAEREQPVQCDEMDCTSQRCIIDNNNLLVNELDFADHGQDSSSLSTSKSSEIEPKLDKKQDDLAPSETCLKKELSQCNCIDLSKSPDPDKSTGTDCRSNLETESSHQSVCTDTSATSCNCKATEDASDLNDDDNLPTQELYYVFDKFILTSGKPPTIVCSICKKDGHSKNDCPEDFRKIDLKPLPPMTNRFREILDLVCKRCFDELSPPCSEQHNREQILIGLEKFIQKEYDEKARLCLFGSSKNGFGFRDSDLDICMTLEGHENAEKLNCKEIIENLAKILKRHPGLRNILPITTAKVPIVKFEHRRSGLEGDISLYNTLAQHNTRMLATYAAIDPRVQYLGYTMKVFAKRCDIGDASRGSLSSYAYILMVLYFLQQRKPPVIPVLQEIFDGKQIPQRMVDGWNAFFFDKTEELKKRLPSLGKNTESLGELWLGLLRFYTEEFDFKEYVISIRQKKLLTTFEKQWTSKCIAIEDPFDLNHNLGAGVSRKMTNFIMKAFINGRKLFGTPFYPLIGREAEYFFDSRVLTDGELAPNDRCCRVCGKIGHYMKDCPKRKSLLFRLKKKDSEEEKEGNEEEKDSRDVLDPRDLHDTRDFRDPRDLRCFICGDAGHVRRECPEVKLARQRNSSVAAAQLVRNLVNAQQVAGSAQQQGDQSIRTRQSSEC
Format: biochemical
Outline: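 Readout: time-dependent quench of 5′-fluorescein pre-let-7 (2 nM) as 3′-rhodamine A20 probe anneals to poly(U) tails. Enzyme 0.2 nM Zcchc11 (res. 212-1420), LIN28A 10 nM, UTP 5 uM; pH 7.3 HEPES, 150 mM KCl, 5 mM MgCl2, RT. 4-parameter IC50; 100% = DMSO, 0% = no UTP.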

IC50	SMILES
≤ 1000 nM	COc1ccc(Cl)c(OC[C@H]2C[C@@H]3C[C@@H]3N2c2cc3c(cc2F)c(=O)c(C(=O)O)cn3-c2ccc(N3CC(N(C)C)C3)nc2)n1 [Example 74, 7-[(1S,3R,5S)-3-{[(3-chloro-6-methoxypyridin-2-yl)oxy]methyl}-2-azabicyclo[3.1.0]hexan-2-yl]-1-{6-[3-(dimethylamino)azetidin-1-yl]pyridin-3-yl}-6-fluoro-4-oxo-1,4-dihydroquinoline-3-carboxylic acid]
≤ 1000 nM	COc1ccc(Cl)c(OC[C@H]2CC3CC3N2c2cc3c(cc2F)c(=O)c(C(=O)O)cn3-c2ccnc(N)c2)n1 (stereo partly drawn) [Example 66, 1-(2-Aminopyridin-4-yl)-7-((3R)-3-(((3-chloro-6-methoxypyridin-2-yl)oxy)methyl)-2-azabicyclo[3.1.0]hexan-2-yl)-6-fluoro-4-oxo-1,4-dihydroquinoline-3-carboxylic acid]
≤ 1000 nM	CN(C)C1CN(c2ccc(-n3cc(C(=O)O)c(=O)c4cc(C#N)c(N5CCC[C@@]5(C)COc5ncccc5F)cc43)cn2)C1 [Example 51, (S)-6-cyano-1-(6-(3-(dimethylamino)azetidin-1-yl)pyridin-3-yl)-7-(2-(((3-fluoropyridin-2-yl)oxy)methyl)-2-methylpyrrolidin-1-yl)-4-oxo-1,4-dihydroquinoline-3-carboxylic acid]
1000 to 10000 nM	COCCN1CCC(n2cc(C(=O)O)c(=O)c3cc(Cl)c(N4CCC[C@@H]4COc4ncccc4Cl)cc32)C1 (stereo partly drawn) [Example 38, 6-Chloro-7-[(2R)-2-{[(3-chloropyridin-2-yl)oxy]methyl}-pyrrolidin-1-yl]-1-[1-(2-methoxyethyl)pyrrolidin-3-yl]-4-oxo-1,4-dihydroquinoline-3-carboxylic acid]
≤ 1000 nM	Cc1cccnc1OC[C@H]1CCCN1c1cc2c(cc1F)c(=O)c(C(=O)O)cn2-c1ccc(N)nc1 [Example 13, (R)-1-(6-aminopyridin-3-yl)-6-fluoro-7-(2-(((3-methylpyridin-2-yl)oxy)methyl)pyrrolidin-1-yl)-4-oxo-1,4-dihydroquinoline-3-carboxylic acid]

Same assay, conditions: Lin28a-dependent Zcchc11 (Z11) TUTase activity; read-out: Potency Lin28a-dep Z11 IC50

IC50	SMILES
≤ 1000 nM	Cc1cccc(OC[C@H]2CCCN2c2cc3c(cc2F)c(=O)c(C(=O)O)cn3-c2ccccc2)n1 [Compound 92, (R)-6-fluoro-7-(2-(((6-methyl-pyridin-2-yl)oxy)methyl)pyrrolidin-1-yl)-4-oxo-1-phenyl-1,4-dihydro-quinoline-3-carboxylic acid]
≤ 1000 nM	O=C(O)c1cn(-c2cnn(C3CN(CC(F)F)C3)c2)c2cc(N3CCC[C@@H]3COc3ncccc3Cl)c(Cl)cc2c1=O [Compound 319, 6-Chloro-7-[(2R)-2-[[(3-chloropyridin-2-yl)oxy]methyl]pyrrolidin-1-yl]-1-[1-[1-(2,2-difluoroethyl)azetidin-3-yl]pyrazol-4-yl]-4-oxoquinoline-3-carboxylic acid]
> 50000 nM	CC1(n2cc(C(=O)O)c(=O)c3cc(Cl)c(N4C(=O)CC[C@H]4COc4ccccn4)cc32)CC1 [Compound 288, (S)-6-chloro-1-(1-methylcyclo-propyl)-4-oxo-7-(2-oxo-5-((pyridin-2-yloxy)methyl)pyrrolidin-1-yl)-1,4-dihydro-quinoline-3-carboxylic acid]

Same assay, conditions: Lin28a-dependent Zcchc11 (Z11) TUTase assay; read-out: Potency Lin28a-dep Z11 IC50

IC50	SMILES
≤ 1000 nM	O=C(O)c1cn(-c2cc3cn[nH]c3cn2)c2cc(N3CCC[C@@H]3COc3ncccc3Cl)c(Cl)cc2c1=O [Example 474, (R)-6-chloro-7-(2-(((3-chloropyridin-2-yl)oxy)methyl)pyrrolidin-1-yl)-4-oxo-1-(1H-pyrazolo[3,4-c]pyridin-5-yl)-1,4-dihydroquinoline-3-carboxylic acid]
≤ 1000 nM	O=C(O)c1cn(C2CCc3nccn3C2)c2cc(N3CCC[C@@H]3COc3ncccc3Cl)c(Cl)cc2c1=O (stereo partly drawn) [Example 469, 6-chloro-7-((R)-2-(((3-chloropyridin-2-yl)oxy)methyl)pyrrolidin-1-yl)-4-oxo-1-(5,6,7,8-tetrahydroimidazo [1,2-a]pyridin-6-yl)-1,4-dihydroquinoline-3-carboxylic acid]
≤ 1000 nM	CN(C)[C@@H]1CCN(c2ccc(-n3cc(C(=O)O)c(=O)c4cc(Cl)c(N5CCC[C@@H]5COc5ncccc5Cl)cc43)cn2)C1 [Example 522, 6-chloro-7-((R)-2-(((3-chloropyridin-2-yl)oxy)methyl)pyrrolidin-1-yl)-1-(6-((R)-3-(dimethylamino)pyrrolidin-1-yl)pyridin-3-yl)-4-oxo-1,4-dihydroquinoline-3-carboxylic acid]
≤ 1000 nM	COCCN(C)c1ccc(-n2cc(C(=O)O)c(=O)c3cc(Cl)c(N4CCC[C@@H]4COc4ncccc4Cl)cc32)cn1 [Example 420, (R)-6-chloro-7-(2-(((3-chloropyridin-2-yl)oxy)methyl)pyrrolidin-1-yl)-1-(6-((2-methoxy-ethyl)(methyl)amino)pyridin-3-yl)-4-oxo-1,4-dihydroquinoline-3-carboxylic acid]
≤ 1000 nM	CN(C)C1CN(c2ccc(-n3cc(C(=O)O)c(=O)c4cc(Cl)c(N5CC[C@H](O)[C@@H]5COc5ncccc5Cl)cc43)cn2)C1 [Example 667, 6-chloro-7-((2S,3S)-2-(((3-chloropyridin-2-yl)oxy)methyl)-3-hydroxypyrrolidin-1-yl)-1-(6-(3-(dimethylamino)azetidin-1-yl)pyridin-3-yl)-4-oxo-1,4-dihydroquinoline-3-carboxylic acid]
≤ 1000 nM	O=C(O)c1cn(Cc2cccnc2)c2cc(N3CCC[C@@H]3COc3ncccc3Cl)c(Cl)cc2c1=O [Example 557, (R)-6-chloro-7-(2-(((3-chloropyridin-2-yl)oxy)methyl)pyrrolidin-1-yl)-4-oxo-1-(pyridin-3-ylmethyl)-1,4-dihydroquinoline-3-carboxylic acid]
≤ 1000 nM	CNc1cnc(-n2cc(C(=O)O)c(=O)c3cc(Cl)c(N4CCC[C@@H]4COc4ncccc4Cl)cc32)cn1 [Example 506, (R)-6-chloro-7-(2-(((3-chloropyridin-2-yl)oxy)methyl)pyrrolidin-1-yl)-1-(5-(methylamino)pyrazin-2-yl)-4-oxo-1,4-dihydroquinoline-3-carboxylic acid]
≤ 1000 nM	O=C(O)c1cn(-c2c[nH]cn2)c2cc(N3CCC[C@@H]3COc3ncccc3Cl)c(Cl)cc2c1=O [Example 565, (R)-6-chloro-7-(2-(((3-chloropyridin-2-yl)oxy)methyl)pyrrolidin-1-yl)-1-(1H-imidazol-4-yl)-4-oxo-1,4-dihydroquinoline-3-carboxylic acid]
≤ 1000 nM	O=C(O)c1cn(-c2ccc(F)c(O)c2)c2cc(N3CCC[C@@H]3COc3ccccn3)c(F)cc2c1=O [Example 534, (R)-6-fluoro-1-(4-fluoro-3-hydroxyphenyl)-4-oxo-7-(2-((pyridin-2-yloxy)methyl)pyrrolidin-1-yl)-1,4-dihydroquinoline-3-carboxylic acid]
≤ 1000 nM	Nc1cc(-n2cc(C(=O)O)c(=O)c3cc(Cl)c(N4CCC[C@@H]4COc4ncccc4Cl)cc32)ccn1 [Example 473, (R)-1-(2-aminopyridin-4-yl)-6-chloro-7-(2-(((3-chloropyridin-2-yl)oxy)methyl)pyrrolidin-1-yl)-4-oxo-1,4-dihydroquinoline-3-carboxylic acid]
1000 to 10000 nM	COc1ccc(F)c(-n2cc(C(=O)O)c(=O)c3cc(F)c(N4CCC[C@@H]4COc4ccccn4)cc32)c1 [Example 400, (R)-6-fluoro-1-(2-fluoro-5-methoxyphenyl)-4-oxo-7-(2-((pyridin-2-yloxy)methyl)pyrrolidin-1-yl)-1,4-dihydroquinoline-3-carboxylic acid]

SMILES	IC50
CN(C)C1CN(c2ccc(-n3cc(C(=O)O)c(=O)c4cc(Cl)c(N5CCC[C@@H]5COc5nc(OC(C)(C)C)ccc5Cl)cc43)cn2)C1 [Example 658, (R)-7-(2-(((6-(tert-butoxy)-3-chloropyridin-2-yl)oxy)methyl)pyrrolidin-1-yl)-6-chloro-1-(6-(3-(dimethylamino)azetidin-1-yl)pyridin-3-yl)-4-oxo-1,4-dihydroquinoline-3-carboxylic acid]	≤ 1000 nM
